This note sets out measurements from US7901906B2, “Targeting of MKRN1 for identifying cancer treatment agents” (University of Central Florida Research Foundation, Inc., priority 2006, dated 2011).

Assay [1] deals with hTERT. The experiment in a line: hTERT protein levels by immunoblotting in H1299 cells. Format: cell-based, human. On the procedure: FIG. 1. hTERT is sensitive to the Hsp90 antagonist geldanamycin. (A) Down-regulation of ectopically expressed hTERT by GA. H1299 cells transfected with Flag-hTERT or Flag-TRF1 were treated with 0.1 μM GA for the indicated times. Lysates were resolved on 8% SDS-PAGE and analyzed by immunoblotting using an anti-Flag antibody probe. Cells were pretreated with 10 μM MG132 or E-64 for 2 hours, either alone or before treatment with GA. (B) Concentration dependence of GA on hTERT. H1299 cells transfected with Flag-hTERT or hTERT-HA were treated for 2 hours with the GA concentration indicated. The hTERT polypeptides were visualized with anti-Flag or anti-HA antibodies as marked by each blot. (C) Down-regulation of endogenous hTERT by GA. H1299 cells were treated with 0.1 μM GA for the indicated times, and cell lysates were analyzed by immunoprecipitation with anti-hTERT antibody followed by immunoblotting using same antibody probe. Cells were pretreated with 10 μM MG132 for 2 hours, either alone or before treatment with GA. Molecular weight markers are shown in kilodaltons. (D) H1299 cells were treated with 0.1 μM GA for the indicated times, and cell lysates were analyzed for telomerase activity by the TRAP assay. The lane labeled LB corresponds to the negative control (lysis buffer only). ITAS represents the internal telomerase assay standard. (E) Saos-2 cells transfected with Flag-hTERT or hTERT-HA or empty vector were untreated or treated with 0.1 μM GA for 16 hours, and cell lysates were analyzed for telomerase activity using the TRAP assay.
(§1) FIG. 2. hTERT is ubiquitinated prior to proteasome-mediated degradation. (A) H1299 cells were co-transfected with Flag-hTERT and HA-ubiquitin. Cells were either untreated or treated for 2 hours with 10 μg/ml ALLnN or 0.1 μM GA, or a combination of the two as specified above each lane. Immunoprecipitation was performed with anti-Flag antibody before probing with anti-hTERT or anti-HA antibodies as indicated besides each blot. Molecular weight markers are shown in kilodaltons. (B) H1299 cells co-transfected with Flag-hTERT and HA-ubiquitin were treated for 1 hour with the GA concentration indicated in the presence of 10 μM MG132. Immunoprecipitation was performed with anti-Flag antibody followed by immunoblotting using an anti-HA antibody probe. (C) H1299 cells co-transfected with Flag-hTERT and HA-ubiquitin were either untreated or treated for 2 hours with 10 μg/ml ALLnN as specified above each lane. Proteins were immunoprecipated with anti-Flag antibody followed by immunoblotting using an anti-HA antibody probe.
The human lung carcinoma cell line H1299 was cultured in RPMI-1640 medium, and the human fibrosarcoma cell line HT1080 was cultured in Dulbecco's modified Eagle's medium supplemented with 10% fetal bovine serum, 100 units/ml penicillin, and 100 μg/ml streptomycin in 5% CO2 at 37° C. The human osteosarcoma cell line Saos-2 was maintained in McCoy's 5A medium containing 15% fetal bovine serum, 100 units/ml penicillin, and 100 μg/ml streptomycin. To establish cell lines stably expressing MKRN1, the MKRN1-V5 construct was transfected into HT1080 cells using Lipofectamine Plus (Invitrogen, Carlsbad, Calif.) according to the manufacturer's instructions. As a control, HT1080 cells were also stably transfected with an empty vector. Multiple independent single clones were isolated and checked for protein expression by immunoblotting with anti-V5 antibody.
H1299 cells were transiently transfected with the expression vectors indicated in the figure legends using TransFast transfection reagent (Promega, Madison, Wis.) according to the manufacturer's instructions. Cells were lysed with buffer containing 0.5% NP-40, 50 mM Tris-HCl (pH 7.5), 150 mM NaCl, 2 mM phenyl methylsulphonyl fluoride. […]
(A western blot detects proteins with antibodies after separation by electrophoresis.)

Assay [2] deals with hTERT. Briefly: Ubiquitination of hTERT in H1299 cells (immunoprecipitation, anti-HA immunoblot). The following applies: H1299 Flag-hTERT and HA-ubiquitin, MG132. Type of assay: cell-based, human. As to the method:
as §1
(§2) FIG. 4. MKRN1 functions as an E3 ubiquitin-ligase for hTERT in vitro and in vivo. (A) HA-tagged hTERT (residues 946-1132) was incubated MKRN1 or mutants in the presence of E1, E2, His6-ubiquitin (6×His tag disclosed as SEQ ID NO: 7). Samples were resolved by 6% SDS-PAGE and analyzed by immunoblotting with an anti-HA antibody probe. (B) H1299 cells were co-transfected with Flag-hTERT, HA-ubiquitin, MKRN1-V5, and together with either MKRN1^H307E-V5 or MKRN1^Δ^C-V5 as specified. Cells were untreated or treated with 10 μM MG132 for 2 hours. Anti-Flag immunoprecipitates and cell lysates were analyzed by immunoblotting with anti-HA antibody and anti-V5 antibody probes, respectively. (C) H1299 cells co-transfected with Flag-hTERT and HA-ubiquitin, and together with or without MKRN1-V5 as indicated were treated with 10 μM MG132 for the indicated times. Anti-Flag immunoprecipitates and cell lysates were analyzed by immunoblotting with anti-HA antibody and anti-V5 antibody probes, respectively.
H1299 cells were transiently transfected with the expression vectors indicated in the figure legends using TransFast transfection reagent (Promega, Madison, Wis.) according to the manufacturer's instructions. Cells were lysed with buffer containing 0.5% NP-40, 50 mM Tris-HCl (pH 7.5), 150 mM NaCl, 2 mM phenyl methylsulphonyl fluoride. After centrifugation at 12,000 rpm for 30 min, the supernatants were immunoprecipitated for 2 hours with anti-Flag (Sigma, St. Louis, Mo.) or anti-HA (Santa Cruz biotechnology, Santa Cruz, Calif.) antibodies and then incubated with Sepharose beads conjugated to Protein G (Amersham Biosciences Inc., Piscataway, N.J.). When ubiquitin conjugates of hTERT were detected, immunoprecipitation was performed with lysis buffer containing 0.1% SDS to dissociate its interacting proteins. Immunoblot analyses were performed using anti-hTERT (Santa Cruz biotechnology, Santa Cruz, Calif.), anti-V5 (Invitrogen, Carlsbad, Calif.), anti-HA, and anti-Flag antibodies.
GA-mediated protein degradation by the proteasome depends on conjugation of ubiquitin to the Hsp90 client protein (Isaacs et al. 2002; Citri et al. 2002). To determine whether hTERT is ubiquitinated in vivo prior to its degradation, H1299 cells co-transfected with Flag-tagged hTERT and HA-tagged ubiquitin constructs were treated with GA, ALLnN (a general proteasome inhibitor) or both. The immunoprecipitated products were evaluated by immunoblotting with selected probes as described in FIG. 2. […]

Assay [3] concerns hTERT (residues 946-1132). Briefly: In vitro ubiquitination assay. Type of assay: biochemical, human. The following applies: purified components, E1, E2, His6-ubiquitin, 30° C., 60 min. As to the method: as §2
GST-hTERT-HA expressed in bacteria was used as substrate for in vitro ubiquitination assay (Park et al. 2004). The ubiquitination reactions were carried out in buffer (50 mM Tris-HCl, pH 7.5, 2 mM ATP, 2.5 mM MgCl2, 5 mM dithiothreitol, and 0.05% NP-40) containing yeast E1 (0.05 μg), E2 (0.2 μg), and His6-ubiquitin (0.8 μg) (6×His disclosed as SEQ ID NO: 7) in a final volume of 30 μl. […]

For the molecule `CC(C)C[C@H](NC(=O)[C@H]1O[C@@H]1C(=O)O)C(=O)NCCCCN=C(N)N` [E-64], the “effect on GA-induced down-regulation of hTERT” value with hTERT [1] (H1299 Flag-hTERT, 10 μM pretreatment 2 hours, then GA 4 hours) is listed as “had no effect”. In addition, the “hTERT expression levels, inhibitor alone” value in the assay on hTERT [1] (H1299 Flag-hTERT, 10 μM, absence of GA, relative to untreated controls) is on record as “did not cause a significant change”. With `COC1=C2C[C@@H](C)C[C@H](OC)[C@H](O)[C@@H](C)/C=C(\C)[C@H](OC(N)=O)[C@@H](OC)/C=C\C=C(/C)C(=O)NC(=CC1=O)C2=O` [GA, geldanamycin], the hTERT protein eliminated result in the assay with hTERT [1] (H1299 transfected with Flag-hTERT, 0.1 μM GA, within 2 hours) is listed as “over 50%”.

B1: MKRN1^H307E: MKRN1 mutant with mutated histidine residue in the RING finger domain (protein)
chain: MAEAATPGTTATTSGAGAAAATAAAASPTPIPTVTAPSLGAGGGGGGSDGSGGGWTKQVTCRYFMHGVCKEGDNCRYSHDLSDSPYSVVCKYFQRGYCIYGDRCRYEHSKPLKQEEATATELTTKSSLAASSSLSSIVGPLVEMNTGEAESRNSNFATVGAGSEDWVNAIEFVPGQPYCGRTAPSCTEAPLQGSVTKEESEKEQTAVETKKQLCPYAAVGECRYGENCVYLHGDSCDMCGLQLLHPMDAAQRSQHIKSCIEAHEKDMELSFAVQRSKDMVCGICMEVVYEKANPSERRFGILSNCNETYCLKCIRKWRSAKQFESKIIKSCPECRITSNFVIPSEYWVEEKEEKQKLILKYKEAMSNKACRYFDEGRGSCPFGGNCFYKHAYPDAGREEPQRQKVGTSSRYRAQRRNHFWELIEERENSNPFDNDEEEVVTFELGEMLLMLLAAGGDDELTDSEDEWDLFHDELEDFYDLDL
modifications: left off: small tags and cut ends
As for B1, in the assay with hTERT [2], the “amount of ubiquitinated hTERT on co-expression” value is reported as “significantly reduced”. Further, the “ubiquitination of C-terminal domain of hTERT” value in assay [3] is on record as “not”.
